# Experiments:
# Type in all cases: cell-based, human
# Settings in all cases: Tacrolimus 10 ng/mL (Table 3); 7 days MLR; mean +/- SD
# CD3^+ cells = assay: In vitro T cell proliferation assay (allogenic PBMC co-culture, MLR), CD3+ cells
# Text: (§1) Frozen PBMC were thawed in RPMI medium (Gibco, Thermofisher scientific, Waltham, Massachusetts, USA) with 20% fetal bovine serum (Cytiva, Little Chalfont, Buckinghamshire, United Kingdom). 200 000 PBMC from an individual, stained with CelltraceTM Violet Dye (Thermofisher scientific), were cocultured with 200 000 PBMC from another individual stained with CelltraceTM Farr Red Dye (Thermofisher Scientific) in RPMI medium supplemented with 10 % FBS and penicilline-streptomycine (Cultek, Madrid, Spain) for 7 days. […] Cells were analyzed using a LSRFortessaTM flow cytometer with DIVA (BD Biosciences) and FlowJo Softwares (Tree Star, Ashland, OR, USA). For each condition, we assessed the proportion of PBMC with low Violet or Farr Red dye staining among CD3^+ cells, C3^+CD4^+ cells and CD3^+CD4^+PD-1^+ cells and proceeded to normalization to the MLR without drug condition.
# CD3^+CD4^+ cells = assay: In vitro T cell proliferation assay (allogenic PBMC co-culture, MLR), CD3+CD4+ cells
# Text: as §1
# CD3^+CD4^+PD-1^+ cells = assay: In vitro T cell proliferation assay (allogenic PBMC co-culture, MLR), CD3+CD4+PD-1+ cells
# Text: as §1
structure (smiles),measurement,setting,value
C=CC[C@@H]1/C=C(\C)C[C@H](C)C[C@H](OC)[C@H]2O[C@@](O)(C(=O)C(=O)N3CCCC[C@H]3C(=O)O[C@H](/C(C)=C/[C@@H]3CC[C@@H](O)[C@H](OC)C3)[C@H](C)[C@@H](O)CC1=O)[C@H](C)C[C@@H]2OC [Tacrolimus],Proliferation of CD3^+ cells (% of proliferation compared with the condition without drug),CD3^+ cells,19.35 +/- 14.78%
same,Proliferation of CD3^+CD4^+ cells (% of proliferation compared with the condition without drug),CD3^+CD4^+ cells,23.34 +/- 20.03%
same,Proliferation of CD3^+CD4^+PD-1^+ cells (% of proliferation compared with the condition without drug),CD3^+CD4^+PD-1^+ cells,25.65 +/-20.39%

# Source: patent EP4454710A1, “BISPECIFIC FUSION PROTEINS WITH IMMUNOSUPPRESSIVE ACTIVITY” (Universitat de Barcelona, priority 2023, dated 2024)
